Measured values reported in paper PMC6238273, “First in vivo evaluation of a potential SPECT brain radiotracer for the gonadotropin releasing hormone receptor” (BMC Research Notes, 2018).
Entries after “also recorded” stand apart in the source; their conditions may differ.

Key:
Rat brain SPECT imaging = assay type: in vivo
Procedure: Compound-1 SPECT brain imaging and biodistribution were examined post injection in rats. All animal procedures were performed under isoflurane anesthesia (Induction 4%, Maintenance 2% in oxygen). One group of rats was injected intravenous (iv.) with [^123I]-Compound-1 (1.67 MBq ± 0.28, n = 3). A second group was injected intraperitoneal (ip.) (4.12 MBq ± 0.56, n = 3). A third group of animals was injected iv. with Na^123I (1.53 MBq ± 0.37 SD, n = 3). Biodistribution of these compounds was studied after the SPECT imaging sessions 1 h post-injection (in the iv. groups) and 2 and 5 h post-administration in the ip. group. Rats were positioned with the brain in the center of the field of view inside a 4 detector configuration Triumph™ II X-SPECT^Ⓡ small animal PET/SPECT/CT scanner (Trifoil Imaging, Northridge Tri-Modality Imaging, Inc., Chatsworth, CA). Heart rate and breathing was monitored with sensors inside a closed animal cell (Equipment Veterinaire Minerve, Esternay) and the temperature on the heated air flow inside the cell was set to 35 °C to prevent hypothermia. […] Images were analyzed using PMOD (PMOD Technologies Ltd., Zürich). […] In addition, an average SPECT image over all time frames was calculated for each animal.

[1] = Stability in saline (0.9% NaCl) by LC-MS; assay type: physicochemical; settings: ambient temperature, n = 1
Procedure: The stability of Compound-1 was initially investigated in saline. Compound-1 was dissolved in ethanol:Polysorbate 80:water (5:5:90) then incubated with 300 µl 0.9% NaCl at ambient temperature to give a final concentration of 6.5 mM (millimolar). […] Furthermore, Compound-1 was investigated in human and rat serum. Compound-1 in ethanol:Polysorbate 80:water (5:5:90) was incubated with 400 µl human and 300 µl rat serum at 37 °C to give a final concentration of 5 mM and 6.5 mM. Aliquots (40–50 µl) from previous mixtures was extracted with ice-cold acetonitrile at 0, 10, 30, 60, 120, 240 and 1320 min post-incubation. Samples were centrifuged at 13,000g for 5 min. The supernatants were analysed by LC–MS. Serum experiments were performed in triplicate. Additionally, [^123I]-Compound-1 was evaluated for in vivo stability by analyzing blood samples after 1 h post injection. The blood samples were centrifuged and the supernatant was injected on the radio-HPLC.

hGnRHR = target: T1, hGnRHR (Homo sapiens, UniProt P30968); test: Competitive binding for LHRH/GnRH by fluorescence based FLIPR-assay in HEK293T cells stably expressing GnRH receptors; assay type: cell-based; settings: for Ki: 5 nM LHRH agonist, Ki by cheng-prusoff equation; for IC50: competition with 5 nM LHRH agonist, read-out: hGnRHR pIC50 (converted)
T1 construct: host or cells: HEK293T
T1 sequence (P30968 1-328): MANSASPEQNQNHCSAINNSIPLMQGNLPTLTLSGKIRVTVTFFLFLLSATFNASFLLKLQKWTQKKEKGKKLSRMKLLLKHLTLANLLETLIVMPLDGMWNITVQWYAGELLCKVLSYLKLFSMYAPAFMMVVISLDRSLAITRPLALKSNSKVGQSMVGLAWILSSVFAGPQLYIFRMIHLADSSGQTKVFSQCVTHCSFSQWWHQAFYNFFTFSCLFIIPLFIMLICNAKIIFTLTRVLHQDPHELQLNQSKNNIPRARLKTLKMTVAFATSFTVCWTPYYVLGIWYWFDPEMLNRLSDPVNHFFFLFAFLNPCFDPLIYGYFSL
Procedure: HEK293T (division arrested cell-line, Multispan Inc. USA) cells stably expressing GnRH receptors were used to measure the competitive binding for LHRH/GnRH by a fluorescence based FLIPR-assay. Compound-1 was tested in concentrations from 50 µM to 0.5 nM with 5 nM LHRH agonist as competitor.
The Ki was determined by using the cheng-prusoff equation [13].

[2] = Stability in rat serum by LC-MS; assay type: in vitro ADME; settings: for % of compound remaining, rat serum: 37 °C
Procedure: (§1) The stability of Compound-1 was initially investigated in saline. Compound-1 was dissolved in ethanol:Polysorbate 80:water (5:5:90) then incubated with 300 µl 0.9% NaCl at ambient temperature to give a final concentration of 6.5 mM (millimolar). Aliquots were taken at 0, 60, 120 and 1560 min, then analysed by LC–MS. Furthermore, Compound-1 was investigated in human and rat serum. Compound-1 in ethanol:Polysorbate 80:water (5:5:90) was incubated with 400 µl human and 300 µl rat serum at 37 °C to give a final concentration of 5 mM and 6.5 mM. Aliquots (40–50 µl) from previous mixtures was extracted with ice-cold acetonitrile at 0, 10, 30, 60, 120, 240 and 1320 min post-incubation. Samples were centrifuged at 13,000g for 5 min. The supernatants were analysed by LC–MS. Serum experiments were performed in triplicate. Additionally, [^123I]-Compound-1 was evaluated for in vivo stability by analyzing blood samples after 1 h post injection. The blood samples were centrifuged and the supernatant was injected on the radio-HPLC.

[3] = Stability in human serum by LC-MS; assay type: in vitro ADME; settings: for % of compound remaining, human serum: 37 °C
Procedure: as §1

[4] = Biodistribution in rats (gamma counter, % ID/g); assay type: in vivo; settings: rat
Procedure: Compound-1 SPECT brain imaging and biodistribution were examined post injection in rats. All animal procedures were performed under isoflurane anesthesia (Induction 4%, Maintenance 2% in oxygen). One group of rats was injected intravenous (iv.) with [^123I]-Compound-1 (1.67 MBq ± 0.28, n = 3). A second group was injected intraperitoneal (ip.) (4.12 MBq ± 0.56, n = 3). A third group of animals was injected iv. with Na^123I (1.53 MBq ± 0.37 SD, n = 3). Biodistribution of these compounds was studied after the SPECT imaging sessions 1 h post-injection (in the iv. groups) and 2 and 5 h post-administration in the ip. group. Rats were positioned with the brain in the center of the field of view inside a 4 detector configuration Triumph™ II X-SPECT^Ⓡ small animal PET/SPECT/CT scanner (Trifoil Imaging, Northridge Tri-Modality Imaging, Inc., Chatsworth, CA). Heart rate and breathing was monitored with sensors inside a closed animal cell (Equipment Veterinaire Minerve, Esternay) and the temperature on the heated air flow inside the cell was set to 35 °C to prevent hypothermia. Dynamic SPECT acquisitions for 30 and 60 min with 6–12 image frames (5 min duration) were obtained for the animals which were used for 1–2 h biodistribution studies respectively. The animals subjected to the 5 h biodistribution study were scanned after an average of 4 h and 20 min, a static SPECT of 30 min was acquired. 1.0 mm 5-multipinhole collimator (N5F65A10) and 50 mm radius of rotation (ROR). Images were reconstructed using a 20% energy window and Ordered Subset Expectation Maximization (OSEM) algorithm with 5 iterations and 8 subsets. Computed tomography (CT) was performed using 80 kVp, 2 × 2 binning, 512 projections and 1.3× magnification, immediately after SPECT imaging. The raw data were reconstructed using Filtered Back Projection. Images were analyzed using PMOD (PMOD Technologies Ltd., Zürich). Volumes of interests (VOI) representing the brain-tissue, non-brain-tissue and background regions were delineated based on the anatomical CT images, and transferred to the co-registered dynamic SPECT data. In addition, an average SPECT image over all time frames was calculated for each animal.
Animals were euthanized with an overdose of pentobarbital (ip. […]) and organs were collected, weighed and analysed for radioactivity measurements on an automatic gamma counter (Wizard^2 2480, Perkin Elmer, USA). Organ distribution was expressed as percentage of injected dose per gram for the organs selected (% ID/g).

[5] = In vivo stability: radio-HPLC of blood samples 1 h post injection; settings: rat blood samples 1 h post injection
Procedure: as §1

[6] = 120 min, mean ± SD n = 3, listed as compound 1

CC(C)(C)c1ccc(-c2nc3c(N4CCN(C(=O)CI)CC4)cccc3[nH]2)cc1 [Compound-1]
brain uptake in SPECT images (Rat brain SPECT imaging; iv. or ip. injection): no uptake; also recorded: did not show any uptake
% of compound remaining, saline ([1]; 0 min, 6.5 mM): 100%
% of compound remaining, saline ([1]; 60 min): 46%
% of compound remaining, saline ([1]; 120 min): 10%
% of compound remaining, saline ([1]; 1440 min (24 h)): 2%
% of compound remaining, saline ([1]; 1440 min (24 h), listed as compound 1): 1.6%
Ki (hGnRHR): 82 nM
IC50 (hGnRHR): 5130 nM
% of compound remaining, rat serum ([2]; 0 min, 6.5 mM): 100%
% of compound remaining, rat serum ([2]; 10 min, mean ± SD n = 3): 86±7.3%
% of compound remaining, rat serum ([2]; 30 min, mean ± SD n = 3): 82±11.5%
% of compound remaining, rat serum ([2]; 60 min, mean ± SD n = 3): 44±5.5%
% of compound remaining, rat serum ([2]; 120 min, mean ± SD n = 3): approximately 30%
% of compound remaining, rat serum [2, 6]: 30±4.8%
% of compound remaining, rat serum ([2]; 240 min, mean ± SD n = 3): 8±1.6%
% of compound remaining, rat serum ([2]; 1320 min): 0%
decrease of compound in rat serum ([2]; after 1 h, LC-MS): 50%
% of compound remaining, human serum ([3]; 0 min, 5 mM): 100%
% of compound remaining, human serum ([3]; 10 min, mean ± SD n = 3): 88±1.6%
% of compound remaining, human serum ([3]; 30 min, mean ± SD n = 3): 74±8.1%
% of compound remaining, human serum ([3]; 60 min, mean ± SD n = 3): 52±1.5%
% of compound remaining, human serum ([3]; 120 min, mean ± SD n = 3): 23%
% of compound remaining, human serum [3, 6]: 23±1.6%
% of compound remaining, human serum ([3]; 240 min, mean ± SD n = 3): 3±0.3%
% of compound remaining, human serum ([3]; 1320 min): 0%
decrease of compound in human serum ([3]; after 1 h, LC-MS): 50%

CC(C)(C)c1ccc(-c2nc3c(N4CCN(Cc5ccc6nccnc6c5)CC4)cccc3[nH]2)cc1 [WAY207024, 6-({4-[2-(4-tert-butylphenyl)-1H-benzimidazol-4-yl]piperazin-1-yl}methyl)quinoxaline, reference compound]
Ki (hGnRHR): 12.2 nM
IC50 (hGnRHR): 631 nM

CC(C)(C)c1ccc(-c2nc3c(N4CCN(C(=O)C[123I])CC4)cccc3[nH]2)cc1 [[^123I]-Compound-1]
SPECT VOI comparison (brain, non-brain region, background region) (Rat brain SPECT imaging; semi-quantitative SPECT analysis): no significant differences
organ distribution, brain ([4]; 1 h post iv. injection): 0.03 % ID/g
organ distribution, stomach ([4]; 1 h post iv. injection): 3.6 % ID/g
organ distribution, testis ([4]; 1 h post iv. injection): 0.2 % ID/g
organ distribution, thyroid ([4]; 1 h post iv. injection): 1.2 % ID/g
organ distribution, stomach ([4]; 2 h post ip. administration): 2.5 % ID/g
organ distribution, thyroid ([4]; 2 h post ip. administration): 5.8 % ID/g
organ distribution, stomach ([4]; 5 h post ip. administration): 2 % ID/g
organ distribution, thyroid ([4]; 5 h post ip. administration): 13.1 % ID/g
detection of intact radiotracer in blood by radio-HPLC [5]: did not detect
